According to ChEMBL document CHEMBL3046000, “Design and synthesis of 1-(benzothiazol-5-yl)-1H-1,2,4-triazol-5-ones as protoporphyrinogen oxidase inhibitors” (Bioorg Med Chem, 2013):

Assays:
Chenopodium album [1] = experiment: Post-emergence herbicidal activity against Chenopodium album seedlings assessed as plant growth inhibition at 75 g ai/ha measured 15 days after compound treatment under greenhouse conditions; format: functional; details: 360 h, read-out: GI
Chenopodium album [2] = experiment: Post-emergence herbicidal activity against Chenopodium album seedlings assessed as plant growth inhibition at 37.5 g ai/ha measured 15 days after compound treatment under greenhouse conditions; format: functional; details: 360 h, read-out: GI
Chenopodium album [3] = experiment: Post-emergence herbicidal activity against Chenopodium album seedlings assessed as plant growth inhibition at 150 g ai/ha measured 15 days after compound treatment under greenhouse conditions; format: functional; details: 360 h, read-out: GI
Amaranthus retroflexus [4] = experiment: Post emergence herbicidal activity against Amaranthus retroflexus seedlings assessed as plant growth inhibition at 75 g ai/ha measured 15 days after compound treatment under greenhouse conditions; format: functional; details: 360 h, read-out: GI
Amaranthus retroflexus [5] = experiment: Post emergence herbicidal activity against Amaranthus retroflexus seedlings assessed as plant growth inhibition at 37.5 g ai/ha measured 15 days after compound treatment under greenhouse conditions; format: functional; details: 360 h, read-out: GI
Amaranthus retroflexus [6] = experiment: Post emergence herbicidal activity against Amaranthus retroflexus seedlings assessed as plant growth inhibition at 150 g ai/ha measured 15 days after compound treatment under greenhouse conditions; format: functional; details: 360 h, read-out: GI
Brassica juncea [7] = experiment: Post-emergence herbicidal activity against Brassica juncea seedlings assessed as plant growth inhibition at 75 g ai/ha measured 15 days after compound treatment under greenhouse conditions; format: functional; details: 360 h, read-out: GI
Brassica juncea [8] = experiment: Post-emergence herbicidal activity against Brassica juncea seedlings assessed as plant growth inhibition at 37.5 g ai/ha measured 15 days after compound treatment under greenhouse conditions; format: functional; details: 360 h, read-out: GI
Brassica juncea [9] = experiment: Post-emergence herbicidal activity against Brassica juncea seedlings assessed as plant growth inhibition at 150 g ai/ha measured 15 days after compound treatment under greenhouse conditions; format: functional; details: 360 h, read-out: GI
Setaria faberi [10] = experiment: Post-emergence herbicidal activity against Setaria faberi (Giant Foxtail) seedlings assessed as plant growth inhibition at 75 g ai/ha measured 15 days after compound treatment under greenhouse conditions; format: functional; details: 360 h, read-out: GI
Setaria faberi [11] = experiment: Post-emergence herbicidal activity against Setaria faberi (Giant Foxtail) seedlings assessed as plant growth inhibition at 37.5 g ai/ha measured 15 days after compound treatment under greenhouse conditions; format: functional; details: 360 h, read-out: GI
Setaria faberi [12] = experiment: Post-emergence herbicidal activity against Setaria faberi (Giant Foxtail) seedlings assessed as plant growth inhibition at 150 g ai/ha measured 15 days after compound treatment under greenhouse conditions; format: functional; details: 360 h, read-out: GI
Digitaria sanguinalis [13] = experiment: Post-emergence herbicidal activity against Digitaria sanguinalis (hairy crabgrass) seedlings assessed as plant growth inhibition at 75 g ai/ha measured 15 days after compound treatment under greenhouse conditions; format: functional; details: 360 h, read-out: GI
Digitaria sanguinalis [14] = experiment: Post-emergence herbicidal activity against Digitaria sanguinalis (hairy crabgrass) seedlings assessed as plant growth inhibition at 37.5 g ai/ha measured 15 days after compound treatment under greenhouse conditions; format: functional; details: 360 h, read-out: GI
Digitaria sanguinalis [15] = experiment: Post-emergence herbicidal activity against Digitaria sanguinalis (hairy crabgrass) seedlings assessed as plant growth inhibition at 150 g ai/ha measured 15 days after compound treatment under greenhouse conditions; format: functional; details: 360 h, read-out: GI
Echinochloa crus-galli [16] = experiment: Post emergence herbicidal activity against Echinochloa crus-galli (barnyard grass) seedlings assessed as plant growth inhibition at 75 g ai/ha measured 15 days after compound treatment under greenhouse conditions; format: functional; details: 360 h, read-out: GI
Echinochloa crus-galli [17] = experiment: Post emergence herbicidal activity against Echinochloa crus-galli (barnyard grass) seedlings assessed as plant growth inhibition at 37.5 g ai/ha measured 15 days after compound treatment under greenhouse conditions; format: functional; details: 360 h, read-out: GI
Echinochloa crus-galli [18] = experiment: Post emergence herbicidal activity against Echinochloa crus-galli (barnyard grass) seedlings assessed as plant growth inhibition at 150 g ai/ha measured 15 days after compound treatment under greenhouse conditions; format: functional; details: 360 h, read-out: GI
[19] = target: T1, Protoporphyrinogen oxidase, chloroplastic (Nicotiana tabacum, UniProt O24163); experiment: Inhibition of Nicotiana tabacum (tobacco) recombinant PPO assessed as protoporphyrin IX formation at room temperature by fluorimetric assay
T1 sequence (O24163 whole entry): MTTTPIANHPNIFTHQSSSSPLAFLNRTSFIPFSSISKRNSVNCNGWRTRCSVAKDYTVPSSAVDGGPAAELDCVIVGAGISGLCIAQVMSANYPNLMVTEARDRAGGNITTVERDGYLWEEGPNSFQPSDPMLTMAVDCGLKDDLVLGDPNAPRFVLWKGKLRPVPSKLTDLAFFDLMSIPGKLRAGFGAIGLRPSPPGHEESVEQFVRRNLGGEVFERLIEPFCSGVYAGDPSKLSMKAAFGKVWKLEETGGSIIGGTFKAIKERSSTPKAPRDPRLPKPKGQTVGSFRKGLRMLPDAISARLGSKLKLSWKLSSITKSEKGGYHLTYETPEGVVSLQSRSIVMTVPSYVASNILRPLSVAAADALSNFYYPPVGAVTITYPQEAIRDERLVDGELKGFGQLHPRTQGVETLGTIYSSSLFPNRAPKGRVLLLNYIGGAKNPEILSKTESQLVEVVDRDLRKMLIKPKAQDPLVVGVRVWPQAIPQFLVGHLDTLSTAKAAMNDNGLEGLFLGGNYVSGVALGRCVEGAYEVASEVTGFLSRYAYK

| Ki [19] [µM] | SMILES | inhibition of growth at 75 g/ha (Chenopodium album [1]) [%] | inhibition of growth at 37.5 g/ha (Chenopodium album [2]) [%] | inhibition of growth at 150 g/ha (Chenopodium album [3]) [%] | inhibition of growth at 75 g/ha (Amaranthus retroflexus [4]) [%] | inhibition of growth at 37.5 g/ha (Amaranthus retroflexus [5]) [%] | inhibition of growth at 150 g/ha (Amaranthus retroflexus [6]) [%] | inhibition of growth at 75 g/ha (Brassica juncea [7]) [%] | inhibition of growth at 37.5 g/ha (Brassica juncea [8]) [%] | inhibition of growth at 150 g/ha (Brassica juncea [9]) [%] | inhibition of growth at 75 g/ha (Setaria faberi [10]) [%] | inhibition of growth at 37.5 g/ha (Setaria faberi [11]) [%] | inhibition of growth at 150 g/ha (Setaria faberi [12]) [%] | inhibition of growth at 75 g/ha (Digitaria sanguinalis [13]) [%] | inhibition of growth at 37.5 g/ha (Digitaria sanguinalis [14]) [%] | inhibition of growth at 150 g/ha (Digitaria sanguinalis [15]) [%] | inhibition of growth at 75 g/ha (Echinochloa crus-galli [16]) [%] | inhibition of growth at 37.5 g/ha (Echinochloa crus-galli [17]) [%] | inhibition of growth at 150 g/ha (Echinochloa crus-galli [18]) [%] |
| --- | --- | --- | --- | --- | --- | --- | --- | --- | --- | --- | --- | --- | --- | --- | --- | --- | --- | --- | --- |
| 15.2 | COC(=O)CSc1nc2cc(-n3nc(C)n(C(F)F)c3=O)c(Cl)cc2s1 | ≥ 90 | ≥ 90 | 60 | ≥ 90 | 60 | ≥ 90 | 80 | 60 | ≥ 90 | 50 | 50 | ≥ 90 | < 50 | < 50 | ≥ 90 | 50 | 50 | ≥ 90 |
| 17.8 | Cc1nn(-c2cc3nc(SCCC(=O)O)sc3cc2Cl)c(=O)n1C(F)F | < 50 | < 50 | ≥ 90 | < 50 | < 50 | ≥ 90 | 60 | 50 | ≥ 90 | 60 | 60 | < 50 | < 50 | < 50 | < 50 | 50 | 50 | < 50 |
| 8 | CCOC(=O)CSc1nc2cc(-n3nc(C)n(C(F)F)c3=O)c(Br)cc2s1 | ≥ 90 | ≥ 90 | ≥ 90 | ≥ 90 | ≥ 90 | ≥ 90 | 80 | 80 | ≥ 90 | 60 | 50 | 80 | 60 | 50 | 80 | 60 | 50 | 50 |
| 0.51 | CSc1nc2cc(-n3nc(C)n(C(F)F)c3=O)c(F)cc2s1 |  |  | < 50 |  |  | 80 |  |  | < 50 |  |  | 50 |  |  | < 50 |  |  | 50 |
| 3.39 | CCOC(=O)C(C)Sc1nc2cc(-n3nc(C)n(C(F)F)c3=O)c(Cl)cc2s1 (centres undefined) |  |  | 60 |  |  | ≥ 90 |  |  | ≥ 90 |  |  | 80 |  |  | 80 |  |  | 80 |
| 0.29 | COC(=O)Sc1nc2cc(-n3nc(C)n(C(F)F)c3=O)c(F)cc2s1 | ≥ 90 | 50 | ≥ 90 | 50 | < 50 | ≥ 90 | 50 | < 50 | ≥ 90 | < 50 | < 50 | < 50 | 60 | 60 | 60 | 50 | 50 | 60 |
| 12.8 | C=CCSc1nc2cc(-n3nc(C)n(C(F)F)c3=O)c(Br)cc2s1 |  |  | 50 |  |  | 60 |  |  | 50 |  |  | 60 |  |  | < 50 |  |  | < 50 |

| SMILES | Ki [19] [µM] | inhibition of growth at 75 g/ha (Chenopodium album [1]) [%] | inhibition of growth at 37.5 g/ha (Chenopodium album [2]) [%] | inhibition of growth at 150 g/ha (Chenopodium album [3]) [%] | inhibition of growth at 75 g/ha (Amaranthus retroflexus [4]) [%] | inhibition of growth at 37.5 g/ha (Amaranthus retroflexus [5]) [%] | inhibition of growth at 150 g/ha (Amaranthus retroflexus [6]) [%] | inhibition of growth at 75 g/ha (Brassica juncea [7]) [%] | inhibition of growth at 37.5 g/ha (Brassica juncea [8]) [%] | inhibition of growth at 150 g/ha (Brassica juncea [9]) [%] | inhibition of growth at 75 g/ha (Setaria faberi [10]) [%] | inhibition of growth at 37.5 g/ha (Setaria faberi [11]) [%] | inhibition of growth at 150 g/ha (Setaria faberi [12]) [%] | inhibition of growth at 75 g/ha (Digitaria sanguinalis [13]) [%] | inhibition of growth at 37.5 g/ha (Digitaria sanguinalis [14]) [%] | inhibition of growth at 150 g/ha (Digitaria sanguinalis [15]) [%] | inhibition of growth at 75 g/ha (Echinochloa crus-galli [16]) [%] | inhibition of growth at 37.5 g/ha (Echinochloa crus-galli [17]) [%] | inhibition of growth at 150 g/ha (Echinochloa crus-galli [18]) [%] |
| --- | --- | --- | --- | --- | --- | --- | --- | --- | --- | --- | --- | --- | --- | --- | --- | --- | --- | --- | --- |
| CCCSc1nc2cc(-n3nc(C)n(C(F)F)c3=O)c(Cl)cc2s1 | 2.01 |  |  | 50 |  |  | 60 |  |  | ≥ 90 |  |  | < 50 |  |  | < 50 |  |  | < 50 |
